pIC50, pKd: −log10 of the molar value. “Also recorded” adds a separate entry of the source. Values belong to the molecule of their own block, whether it stands above or below them.
Key:
[1] = system: IRE1α; details: Fig. 1b; read-out: IC50 of reported IRE1α inhibitor; cited from earlier work
[2] = system: IRE1α transcription level in A549 cells; test: RT-qPCR of IRE1α transcription level, A549; assay type: cell-based, human; details: A549 cells
Procedure: (§1) A549 cells, HCT 116 cells, and HT-29 cells were collected and seeded in 6-well plates at a density of 5 × 10^5 cells per well and cultured overnight to attach, then treated with compound or DMSO for 2 h, then 0.5 μg/mL final concentration of tunicamycin (Tm, MP Biomedi, 0215002805) were added to induce the ER stress for 2 h. After treatment, total RNA was purified using an RNeasy mini kit (Qiagen, 74106). 500 ng of total RNA was used for reverse transcription using the High-Capacity cDNA Reverse Transcription Kits (Thermo Fisher, 4368814). cDNA was diluted 1: 5 using RNase-free water, and 1 μL CDNA was used for each qPCR reaction. The qPCR was performed using PowerUp™ SYBR™ Green Master Mix (Thermo Fisher, A25742) with 10 µL reaction volume using Bio-Rad CFX96 Real-Time PCR Detection System following the standard cycling mode (primer Tm ≥ 60 °C) on the manufacturer’s protocol. Data was analyzed using the 2^- ΔΔCt method. The primers used are listed in Supplementary Table S3. The inhibition % was calculated by using the equation: inhibition% = 100× (normalized Tm control - normalized of the sample)/(normalized Tm control - normalized DMSO control). Tm control: Cells treated with tunicamycin; DMSO control: Cells treated with DMSO only.

[3] = system: IRE1α transcription level in HT-29 cells; test: RT-qPCR of IRE1α transcription level, HT-29; assay type: cell-based, human; details: HT-29 cells
Procedure: as §1

[4] = target: T1, IRE1α in A549 cells (Homo sapiens, UniProt O75460); test: Cellular thermal shift assay (CETSA) in A549 cells; assay type: cell-based
T1 construct: endogenous in cells; host or cells: A549 cells
Procedure: A549 cells were harvested and seeded into 100 mm standard cell culture dishes at 80% confluency and cultured overnight. For the IA107 experiment, cells were gently washed with pre-cooled DPBS (Gibco,14190169) and lysed in RIPA buffer (Sigma, R0278) supplemented with phosphatase inhibitor (Roch, 4906845001) and 1× protease inhibitor cocktail (Sigma, P8340) for 30 min on ice. Cell lysates were centrifuged at 18,000 × g for 30 min at 4 °C and the supernatants were collected. The lysates were collected together and then aliquoted into 550 μL, the aliquots were incubated with different concentrations of IA107 with a final concentration of 0.1% DMSO for 30 min at room temperature. […]
For the IAPD1 experiment, A549 cells were treated with different concentrations of IAPD1 or DMSO for 4 h (final 0.1% DMSO). […] Lysates were collected by scraping and centrifuged at 18,000 × g for 30 min at 4 °C, and the protein concentrations of the supernatants were quantified using a BCA protein assay kit (Thermo Scientific, 23227) and diluted to 4 μg/μL, then cell lysate was aliquoted into 10 PCR tubes, with 50 μL of lysate per tube. […] After heating, samples were centrifuged at 18,000 × g for 30 min at 4 °C, and supernatants were collected and analyzed by western blot using the method and antibodies aforementioned.

[5] = target: T2, dephosphorylated IRE1α (Homo sapiens, UniProt O75460); test: Microscale thermophoresis (MST), IRE1α; assay type: binding
T2 construct: Human IRE1α kinase and RNase domain (residues 547–977) was subcloned into pLIB plasmid; His tag (with TEV cleavage site) (N, cleaved yes); made in house; host or cells: Sf9 insect cells, baculovirus (Bac-to-Bac)
Procedure: (§2) Dephosphorylated IRE1α protein and phosphorylated IRE1α protein were labeled and purified using Protein Labeling Kit RED-NHS 2nd Generation (NanoTemper, MO-L011), following the manufacturer’s protocol. The labeling buffer contained 50 mM HEPES, pH 7.5, 200 mM NaCl, 2% glycerol, 0.5 mM TCEP, 0.05% tween20. MST experiments were performed using the Monolith Nt.115 instrument (NanoTemper), and binding experiments were conducted according to the instrument’s instructions. Compounds were serially diluted 2-fold and incubated with labeled IRE1α protein at a final concentration of 20 nM. The highest compound concentration measured was 250 μM with a final DMSO concentration of 2.5%. Measurements were carried out using the red detector with 60% excitation power. Data were analyzed using the manufacturer’s software, and results from three individual measurements were merged for analysis.

[6] = target: T3, phosphorylated IRE1α (Homo sapiens, UniProt O75460); test: Microscale thermophoresis (MST), p-IRE1α; assay type: binding
T3 construct: Human IRE1α kinase and RNase domain (residues 547–977) was subcloned into pLIB plasmid; His tag (with TEV cleavage site) (N, cleaved yes); made in house; host or cells: Sf9 insect cells, baculovirus (Bac-to-Bac)
Procedure: as §2

[7] = target: GSG2 (Haspin) (Homo sapiens, UniProt Q8TF76); test: Kinase profiling (SelectScreen), Adapta; assay type: biochemical
Procedure: (§3) Kinase profiling was conducted by the SelectScreen Kinase Profiling Services (Thermo Fisher), using Z′-LYTE, Adapta, or LanthaScreen Eu Kinase Binding Assay for different kinases. The kinome phylogenetic tree was generated using the KinMap web portal.

[8] = target: BMPR1B (ALK6) (Homo sapiens, UniProt O00238); test: Kinase profiling (SelectScreen), LanthaScreen Binding; details: IA107 at 5 μM
Procedure: as §3

[9] = target: ICK (Homo sapiens, UniProt Q9UPZ9); test: as above; details: IA107 at 5 μM
Procedure: as §3

[10] = target: ULK2 (Homo sapiens, UniProt Q8IYT8); test: as above; details: IA107 at 5 μM
Procedure: as §3

T1 sequence (O75460 19-977): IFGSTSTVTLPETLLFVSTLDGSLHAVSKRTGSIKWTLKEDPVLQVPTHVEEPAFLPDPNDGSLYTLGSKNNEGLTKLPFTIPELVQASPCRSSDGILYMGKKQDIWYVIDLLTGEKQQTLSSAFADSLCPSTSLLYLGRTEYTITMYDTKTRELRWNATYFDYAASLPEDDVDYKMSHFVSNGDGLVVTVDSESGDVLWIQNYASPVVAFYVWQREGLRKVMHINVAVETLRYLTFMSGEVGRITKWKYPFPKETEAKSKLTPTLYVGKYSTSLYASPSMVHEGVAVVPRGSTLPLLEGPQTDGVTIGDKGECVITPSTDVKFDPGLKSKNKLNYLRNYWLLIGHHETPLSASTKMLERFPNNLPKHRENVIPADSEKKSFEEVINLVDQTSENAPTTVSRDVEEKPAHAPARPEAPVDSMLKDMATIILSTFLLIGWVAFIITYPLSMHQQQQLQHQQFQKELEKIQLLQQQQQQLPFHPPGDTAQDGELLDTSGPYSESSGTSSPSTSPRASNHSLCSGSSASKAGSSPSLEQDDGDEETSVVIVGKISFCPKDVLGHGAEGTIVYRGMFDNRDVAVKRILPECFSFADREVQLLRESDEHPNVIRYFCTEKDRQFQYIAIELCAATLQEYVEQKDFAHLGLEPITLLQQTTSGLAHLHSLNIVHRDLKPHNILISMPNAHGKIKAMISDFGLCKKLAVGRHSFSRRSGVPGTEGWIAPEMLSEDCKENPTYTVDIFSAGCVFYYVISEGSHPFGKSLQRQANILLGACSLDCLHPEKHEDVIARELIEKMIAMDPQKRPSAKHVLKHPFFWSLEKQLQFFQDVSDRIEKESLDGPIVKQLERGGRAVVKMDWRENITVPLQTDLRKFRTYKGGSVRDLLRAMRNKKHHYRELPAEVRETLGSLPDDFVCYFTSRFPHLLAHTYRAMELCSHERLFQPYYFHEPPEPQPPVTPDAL
Chain of ICK (Q9UPZ9 whole entry): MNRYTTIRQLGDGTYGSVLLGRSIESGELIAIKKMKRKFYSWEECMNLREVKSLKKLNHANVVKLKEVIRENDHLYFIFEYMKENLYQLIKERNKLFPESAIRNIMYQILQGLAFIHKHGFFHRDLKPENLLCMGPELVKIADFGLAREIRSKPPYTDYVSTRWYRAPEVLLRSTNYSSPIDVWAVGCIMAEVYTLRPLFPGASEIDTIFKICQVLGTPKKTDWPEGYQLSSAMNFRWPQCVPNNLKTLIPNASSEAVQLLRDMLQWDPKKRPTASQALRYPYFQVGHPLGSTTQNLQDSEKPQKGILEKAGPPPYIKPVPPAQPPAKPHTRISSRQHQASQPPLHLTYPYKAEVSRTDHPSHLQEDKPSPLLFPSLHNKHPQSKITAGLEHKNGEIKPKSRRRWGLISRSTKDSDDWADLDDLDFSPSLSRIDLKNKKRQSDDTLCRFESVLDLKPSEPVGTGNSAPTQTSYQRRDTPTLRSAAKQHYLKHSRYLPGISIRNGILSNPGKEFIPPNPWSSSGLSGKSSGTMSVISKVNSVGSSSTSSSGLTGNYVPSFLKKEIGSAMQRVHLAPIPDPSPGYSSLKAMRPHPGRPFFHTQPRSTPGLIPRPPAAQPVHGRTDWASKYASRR
Chain of BMPR1B (ALK6) (O00238 14-502): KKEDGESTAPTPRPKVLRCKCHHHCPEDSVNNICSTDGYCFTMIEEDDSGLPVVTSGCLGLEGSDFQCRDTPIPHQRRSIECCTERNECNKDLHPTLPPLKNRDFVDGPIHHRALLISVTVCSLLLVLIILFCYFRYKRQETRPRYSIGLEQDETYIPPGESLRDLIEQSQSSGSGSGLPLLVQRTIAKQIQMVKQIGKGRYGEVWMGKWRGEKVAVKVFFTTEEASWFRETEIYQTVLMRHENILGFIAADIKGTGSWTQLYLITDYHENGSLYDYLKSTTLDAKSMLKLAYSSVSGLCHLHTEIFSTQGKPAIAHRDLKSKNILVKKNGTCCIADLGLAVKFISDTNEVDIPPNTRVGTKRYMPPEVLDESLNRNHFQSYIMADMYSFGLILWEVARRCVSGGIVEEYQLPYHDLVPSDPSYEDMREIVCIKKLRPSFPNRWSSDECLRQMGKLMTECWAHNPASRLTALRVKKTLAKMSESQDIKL
T3 sequence (O75460 547-977): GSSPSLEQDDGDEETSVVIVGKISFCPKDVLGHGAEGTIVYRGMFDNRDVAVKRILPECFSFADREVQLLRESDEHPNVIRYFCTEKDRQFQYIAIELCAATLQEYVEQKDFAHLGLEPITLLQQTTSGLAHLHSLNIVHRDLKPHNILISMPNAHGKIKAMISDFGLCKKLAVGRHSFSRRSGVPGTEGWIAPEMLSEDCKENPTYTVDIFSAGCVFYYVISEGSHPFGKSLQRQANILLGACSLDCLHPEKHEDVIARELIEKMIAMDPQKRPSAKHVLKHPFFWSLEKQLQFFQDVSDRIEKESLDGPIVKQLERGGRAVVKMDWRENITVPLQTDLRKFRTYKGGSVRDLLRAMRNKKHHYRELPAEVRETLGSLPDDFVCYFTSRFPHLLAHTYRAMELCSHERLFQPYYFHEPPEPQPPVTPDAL
T2 sequence (O75460 547-977): as above
Chain of GSG2 (Haspin) (Q8TF76 whole entry): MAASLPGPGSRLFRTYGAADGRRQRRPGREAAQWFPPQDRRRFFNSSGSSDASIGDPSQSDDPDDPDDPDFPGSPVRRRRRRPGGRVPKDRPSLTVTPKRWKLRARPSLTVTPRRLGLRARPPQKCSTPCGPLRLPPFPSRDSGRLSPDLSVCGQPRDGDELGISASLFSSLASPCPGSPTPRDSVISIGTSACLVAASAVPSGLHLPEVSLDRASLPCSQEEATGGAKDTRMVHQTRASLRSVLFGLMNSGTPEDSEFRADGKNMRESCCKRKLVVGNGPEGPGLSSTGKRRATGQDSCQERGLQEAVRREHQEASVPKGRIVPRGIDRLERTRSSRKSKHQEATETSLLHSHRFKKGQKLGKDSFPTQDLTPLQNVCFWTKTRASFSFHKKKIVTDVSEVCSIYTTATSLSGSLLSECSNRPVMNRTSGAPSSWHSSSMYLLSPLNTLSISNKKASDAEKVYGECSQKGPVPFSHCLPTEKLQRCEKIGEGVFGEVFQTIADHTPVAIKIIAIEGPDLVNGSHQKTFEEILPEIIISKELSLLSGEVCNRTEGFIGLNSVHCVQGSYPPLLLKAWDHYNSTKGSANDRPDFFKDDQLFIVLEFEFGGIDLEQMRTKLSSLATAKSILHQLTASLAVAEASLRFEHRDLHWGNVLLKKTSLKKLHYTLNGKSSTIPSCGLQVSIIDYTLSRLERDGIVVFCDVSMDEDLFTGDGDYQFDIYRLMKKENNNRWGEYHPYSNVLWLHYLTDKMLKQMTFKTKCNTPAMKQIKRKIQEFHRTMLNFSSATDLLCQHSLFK
Chain of ULK2 (Q8IYT8 whole entry): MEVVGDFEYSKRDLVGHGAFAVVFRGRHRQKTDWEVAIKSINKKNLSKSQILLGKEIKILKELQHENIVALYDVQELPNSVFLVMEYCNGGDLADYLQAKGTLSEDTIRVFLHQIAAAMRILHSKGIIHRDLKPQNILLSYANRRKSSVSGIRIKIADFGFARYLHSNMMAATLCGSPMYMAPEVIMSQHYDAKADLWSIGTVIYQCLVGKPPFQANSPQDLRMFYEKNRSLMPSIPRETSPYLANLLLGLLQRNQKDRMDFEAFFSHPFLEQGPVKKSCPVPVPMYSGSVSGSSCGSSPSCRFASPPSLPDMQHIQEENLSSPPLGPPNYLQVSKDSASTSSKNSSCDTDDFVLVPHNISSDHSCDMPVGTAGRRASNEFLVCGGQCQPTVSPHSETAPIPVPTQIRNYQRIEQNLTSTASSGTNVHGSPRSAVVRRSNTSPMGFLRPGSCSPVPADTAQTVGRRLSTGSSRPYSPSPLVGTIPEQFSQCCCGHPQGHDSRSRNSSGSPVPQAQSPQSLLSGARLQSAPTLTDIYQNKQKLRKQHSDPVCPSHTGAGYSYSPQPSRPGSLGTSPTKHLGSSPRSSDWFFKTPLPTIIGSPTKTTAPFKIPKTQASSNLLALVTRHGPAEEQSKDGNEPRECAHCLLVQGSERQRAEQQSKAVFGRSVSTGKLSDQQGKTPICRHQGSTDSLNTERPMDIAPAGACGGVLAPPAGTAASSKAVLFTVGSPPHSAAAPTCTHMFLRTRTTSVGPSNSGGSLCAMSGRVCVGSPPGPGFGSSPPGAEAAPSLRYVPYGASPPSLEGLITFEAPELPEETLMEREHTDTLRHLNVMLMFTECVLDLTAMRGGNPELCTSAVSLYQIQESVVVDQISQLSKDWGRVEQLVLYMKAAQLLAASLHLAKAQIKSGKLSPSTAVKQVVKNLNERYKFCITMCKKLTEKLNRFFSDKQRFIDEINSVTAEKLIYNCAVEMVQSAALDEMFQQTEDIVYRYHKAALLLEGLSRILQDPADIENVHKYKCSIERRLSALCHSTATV

SMILES: Cc1ccc2c(NS(=O)(=O)c3ccccc3Cl)cccc2c1Oc1ncccc1-c1ccnc(N[C@H]2CCCNC2)n1 [KIRA8]
pIC50 [1]: 8.22

treatment concentration below which stabilizing effects are negligible (CETSA) ([4]; A549 cells): lower than 2.22 μM
SMILES: CCOC(=O)CCc1c(C)n(C(=O)c2ccccc2)c2ccc(Br)cc12 [IAPD1]
effect on IRE1α transcription level [2]: minimal impacts; also recorded: not affected | effect on IRE1α transcription level [3]: did not influence; also recorded: no obvious impact | thermal stabilization of cellular IRE1α, CETSA ([4]; A549 cells treated 4 h): dose-dependently stabilized; also recorded: concentration-dependently stabilized; also recorded: concentration-dependently increased

SMILES: Cc1c(CCC(=O)O)c2cc(Br)ccc2n1C(=O)c1ccccc1 [IA107]
pKd [5]: 5.87 | pKd [6]: 6.82 | inhibition at 5 µM [7]: 4% | inhibition at 5 µM [8]: 12% | inhibition at 5 µM [9]: -2% | inhibition at 5 µM [10]: -3%

— paper PMC12475274, “Harnessing indole scaffolds to identify small-molecule IRE1α inhibitors modulating XBP1 mRNA splicing” (Nature Communications, 2025)
